In general, half-life refers to the time needed for the level to fall by half in the phase considered. Low values mean rapid decline, high ones slow decline. For orientation: EC50 means the concentration needed to bring the measured effect to its halfway point. A lower EC50 goes with greater potency.

The source of these data is patent US5667764A, “Compounds, compositions and methods for binding bio-affecting substances to surface membranes of bio-particles” (Zynaxis, Inc., priority 1992, dated 1997).

The subject of one data set is membrane ghosts. The experiment in a line: Membrane binding stability (MBS) assay in membrane ghosts with 5% albumin. To be noted: 24 hours. The procedure, abridged:
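Labeled membrane ghosts were suspended at decreasing numbers in a fixed volume of saline with 5% serum albumin. After 24 hours, label released into the supernatant after pelleting was expressed as percent of total. MBS is the area under the percent-retention versus ghosts/ml curve between 5×10^7 and 4×10^8 ghosts/ml.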

In a further data set the test system is synovial cells. The experiment in a line: Synovial distribution after intra-articular injection. The class given is in vivo. To be noted: 1 hour after injection into the knee, 10 μM. On the procedure: To estimate the homogeneity or heterogeneity of incorporation by synovial cells after intra-articular injection, approximately 0.1 mL of a 10 μM solution of an iodide salt of compound T (see Example 2, above) in 300 mOsM pH 7.0 glucose was injected into the knee as described in Example 10. After 1 hour, the animal was sacrificed, and both injected and uninjected knee joints were dissected. Preparation of whole joint cross sections was not feasible because demineralization is required to cut thin sections and demineralizing solvents remove compounds of the invention from tissue. Therefore the infrapatellar fat pads which underlie the kneecap and form one boundary of the synovial cavity were carefully removed, snap frozen on dry ice, and stored at -80° until frozen sections could be prepared. Thick (10μ) cryostat sections were cut, adhered to glass slide, and evaluated by light and fluorescence microscopy.
(The synovial layer is only 1-2 cells thick in a normal joint but becomes thickened due to hyperproliferation in an arthritic joint.) The rest of the tissue was composed primarily of large fat cells.

The subject of data set [1] is red blood cell ghosts (plasma membrane). The experiment in a line: Membrane retention coefficient (MRC) in red blood cell ghosts. The class given is binding. To be noted: 24 hr; Table II. On the procedure:
Determination of Membrane Retention Coefficient
The membrane retention coefficient (MRC) provides information regarding how well a given compound is retained in the plasma membrane of a cell and is determined as described below.
Generation of red blood cell ghosts for use as a model membrane is achieved by centrifuging whole blood at 300×g for 15 minutes, removal of the plasma and resuspension of the cell pellet in 0.83% (w/v) ammonium chloride. The ghosts are pelleted from the ammonium chloride by centrifuging at 10,000×g for 10 minutes. This ammonium chloride washing procedure is repeated a minimum of five times to insure that complete release of hemoglobin from the cells has occured. The ghosts are labeled with the compound in question at a concentration allowing for detection of the labeled ghosts by instrumental analysis or fluorescent microscopic methods, and at a concentration similar to those that would be used to label cells for a specific application as described above. For the determinations hereinbelow stock solutions of the compounds in question were prepared in ethanol at a molar concentration of 2×10^-3, and working dilutions of the compounds were prepared in iso-osmotic sucrose (52 g/500 ml distilled water). After incubation of the ghosts at an approximate concentration of 1×10^9 ghosts/ml in the working dilutions of the compounds for 10 minutes, the samples were centrifuged at 10,000×g to pellet the ghosts and the staining solution was aspirated from the samples. The labeled ghosts were resuspended in 1 ml of phosphate buffered saline solution containing 10% fetal bovine serum (PBS-FBS). Triplicate 20 ul aliquots were removed from each sample for the determination of the amount of total compound present. The samples were centrifuged as described above and triplicate 20 ul aliquots were removed from the supernatant for quantitative determination of amount of unbound compound present.
After sampling, the supernatant was aspirated and the red cell ghost pellet was resuspended in 1.0 ml of the PBS-FBS, which was once again sampled as described above. This procedure was repeated at least six times, allowing for detection of rapidly released compounds and was monitored after times equal to or greater than 24 hours to allow for the detection of more slowly released compounds. For the determination of the amount of compound present in each sample, the 20 ul aliquots were extracted into 3.0 ml of n-butanol by shaking. The samples were centrifuged at 3000×g to remove membrane debris and the butanol fractions were assayed for compound concentration. Fluorescent compounds are assayed in this manner using peak excitation and emission wave lengths for the particular compounds being assayed to determine the fluorescence units for each sample.
The determination of the amount of compound present in each sample as described above allows for the calculation of the MRC for each washing or fixed time point. The value is obtained by the following formula: […]
wherein CT represents the amount of compound present (in units determined by the method used to assay the compound) in the total sample and CS represents the amount of compound present in the supernatant sample for that particular time point. The comparison of the MRC values defines criteria for identification of the compounds of this invention, these criteria being: 1) the MRC values determined for each washing steps should have a value of at least about 90 and 2) the percent difference between MRC values over at least a 24 hour time period should be less than about 10%. [drawing 14]
The data provided in Table I below are the results from one experiment and serve as an example of the MRC determination. […]

The subject of data set [2] is erythrocyte membrane ghosts. The experiment in a line: Relative membrane retention in erythrocyte membrane ghosts (iodination study). The class given is binding. The note with it: 24 hours, 37° C., PBS+EDTA+5% BSA. As for the experimental part: Relative membrane retention was determined using erythrocyte membrane ghosts prepared by NH4 Cl lysis (Slezak and Horan, Blood, supra). Ghosts were labeled at 4×10^8 /ml with 10 μM compounds for 5 minutes at room temperature, using previously described procedures. However, post-labeling washes were carried out using PBS containing 1 mM EDTA and 5% BSA. After the final wash, ghosts were resuspended at 4×10^8 /ml in PBS+EDTA+5% BSA and incubated for 24 hours at 37° C. At 24 hours, duplicate 50 μl aliquots were withdrawn from a) the well mixed suspension of ghosts (for determination of total compound present), and b) the supernatant remaining after ghosts were pelleted for 15 minutes at 12,500×g (for determination of unbound compound present). Aliquots were extracted by admixture with 200 μl of 100% ethanol and fluorescence intensity of each extract measured using the Fluoroskan II fluorescence microplate reader. Percent compound retained was calculated as
total compound--unbound compound×100/total compound

Data set [3] deals with cells (red cell membranes). The experiment in a line: Number of molecules of compound incorporated per cell. The class given is cell-based. The note with it: 10 μM compounds. As for the experimental part: Number of molecules of compound incorporated per cell was determined for cells labeled with 10 μM compounds. An aliquot of 10^6 cells (10 ul) was withdrawn from the washed cells after final resuspension and counting, compounds were extracted from the cell membrane by admixture with 250 μl of 100% ethanol, and the fluorescence intensity of 200 μl of the extract was measured using a Fluoroskan II fluorescence microplate reader and filter combination. Concentration of compound in each extract was determined from a calibration curve of known compound concentrations made up in 100% ethanol and measured on the Fluoroskan II. Number of molecules of compound per cell was then calculated from the known extract concentration, total volume of extract, and known number of cells extracted. Calculated values were (4.0±0.4)×10^6 for compound T (1.3±0.2)×10^6 for compound AA and (2.5±0.7)×10^6 for compound AB.

Data set [4] can be described thus: In vivo loss of dye from labeled, reinjected erythrocytes. The note with it: rabbit, iv.
Text: *Half life for loss of dye from rabbit erythrocytes after labeling and
Another data set has as its system SMC cell surfaces. The note with it: cited from earlier work.
A further data set deals with thrombin (Homo sapiens, UniProt P00734+P01008). The experiment in a line: Thrombin inhibition (fibrin generation in diluted human plasma). The format is biochemical. The note with it: 0.5 nM thrombin; conjugate on ghosts (@1.43×10^7 ghosts/200 ul). On the procedure:
The concentration response for unconjugated anti-coagulant is provided for comparison. Percentage inhibition of thrombin response (y-axis) is recorded as a function of the molar concentration of compound tested (lower x-axis; log scale), and of the number of carrier cells per test sample (upper x-axis; log scale).
To determine whether the anticoagulative properties of the compounds of the invention were retained when coated on the surface of biomembranes, in vitro studies were performed to assess the ability of the compound of invention to inhibit the coagulation enzyme, thrombin. […] Concentration of compound 21 on ghosts was assessed by placing known numbers of ghosts in microtiter plate wells and comparing the observed fluorescence to the fluorescence produced by known standard concentrations of the compound. […] 211:10 (1987), wherein 100 μl a 1:10 dilution of human plasma in phosphate buffered saline (PBS) buffer, 50 μl of PBS containing varying concentrations of labeled ghosts or standard thrombin inhibitor, and 50 μl of PBS containing a constant amount (0.5 nM) of thrombin were added to microtiter plate wells and absorbance changes at 405 nm were recorded in a spectrophotometric plate reader (Bio-Tek) over a 60 minute period. […] The absorbance changes over time data were plotted and area-under-the-curve measurements performed by computer. […]

Another data set deals with myointimal thickening. The note with it: cell culture or animals after arterial injury; cited from earlier work.
Data set [5] has as its system vascular smooth muscle cells (SMC). To be noted: cited from earlier work.

thrombin, sequence (P01008 33-464, one chain of several): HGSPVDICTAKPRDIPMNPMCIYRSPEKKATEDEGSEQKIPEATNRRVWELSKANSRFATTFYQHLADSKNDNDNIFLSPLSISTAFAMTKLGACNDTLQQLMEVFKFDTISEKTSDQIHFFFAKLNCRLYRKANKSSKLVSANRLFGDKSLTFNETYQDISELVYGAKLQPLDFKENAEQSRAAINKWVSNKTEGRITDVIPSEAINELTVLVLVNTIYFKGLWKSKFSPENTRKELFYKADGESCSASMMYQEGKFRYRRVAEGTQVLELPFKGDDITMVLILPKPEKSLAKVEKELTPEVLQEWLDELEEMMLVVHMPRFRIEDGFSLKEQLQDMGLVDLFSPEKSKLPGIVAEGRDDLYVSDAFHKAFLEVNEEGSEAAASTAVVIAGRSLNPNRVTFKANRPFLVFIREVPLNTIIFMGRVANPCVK

In the case of `CCCCCCCCCCCCCCCCCCCCCCN1C(=CC=CC2=[N+](CCCCCCCCCCCCCC)c3ccccc3C2(C)C)C(C)(C)c2ccccc21` [T], in the data set on membrane ghosts (Table II), the “MBS (% of max.)” value is recorded as 85 ± 1.7 % of max. Besides, the MBS with membrane ghosts (Table III) is 85 ± 1.7%. For the same molecule, in the data set with synovial cells, the “Labeling of infrapatellar fat pad cross sections” value is “bright and relatively homogeneous labeling was essentially confined to the synovial cell layer”. For the same molecule, the “MRC# (at 24 hr.)” value in data set [1] amounted to 97 ± 0.1. The same molecule had a Percent compound retained in data set [2] of 91.9±2.9%. In addition, the “Number of molecules of compound incorporated per cell” value in data set [3] is “(4.0±0.4)×10^6 molecules of compound per cell”. This molecule also had a half-life in data set [4] of 130 days.

As to Heparin, in the data set with SMC cell surfaces, the “Binding to SMC cell surfaces” value is “binds to SMC cell surfaces via high affinity binding sites and is taken up intracellularly”. Further, the midpoint of the response on thrombin, the EC50, lay at 1.03 nM. For the same molecule, the “Effect of heparin on smooth muscle cells / after arterial injury” value with myointimal thickening is “decreased growth and reduced myointimal thickening and cell proliferation”. In addition, in [5], the “Inhibition of cell growth / antiproliferative activity” value is reported as “inhibit the growth of several different cell types, including vascular smooth muscle cells (SMC)”.
